Experimental data from US12370166B2, “Pentadecanoylcarnitine for treatment of conditions related to the quality of aging and longevity” (EPITRACKER, INC., priority 2021, dated 2025).

Columns and labels:
Type in all cases: biochemical
Serotonin Transporter = Serotonin Transporter (Homo sapiens, UniProt P31645); test: Transporter pharmacological activity, blocker; details: for IC50: read-out: RC50 (IC50)
Procedure: (§1) Methods for this study have been previously described (Venn-Watson, S., Lumpkin, R., Dennis, E. A. Efficacy of dietary odd-chain saturated fatty acid pentadecanoic acid parallels broad associated health benefits in humans: could it be essential? Sci Rep 10:8161 (2020)). Significant activities of pentadecanoylcarnitine were those tagged as having maximum pharmacological activities that were greater than or equal to 70% that of the internal control between the concentrations of 1 to 20 μM. Significant pharmacological activities caused by pentadecanoylcarnitine were compared with results from the same assays using pentadecanoic acid (C15:0).

5-HT1A receptor = target: T1, 5-HT1A receptor (Homo sapiens, UniProt P08908); test: Receptor-based pharmacological activity, agonist; details: for EC50: read-out: RC50 (EC50)
T1 sequence (P08908 1-422): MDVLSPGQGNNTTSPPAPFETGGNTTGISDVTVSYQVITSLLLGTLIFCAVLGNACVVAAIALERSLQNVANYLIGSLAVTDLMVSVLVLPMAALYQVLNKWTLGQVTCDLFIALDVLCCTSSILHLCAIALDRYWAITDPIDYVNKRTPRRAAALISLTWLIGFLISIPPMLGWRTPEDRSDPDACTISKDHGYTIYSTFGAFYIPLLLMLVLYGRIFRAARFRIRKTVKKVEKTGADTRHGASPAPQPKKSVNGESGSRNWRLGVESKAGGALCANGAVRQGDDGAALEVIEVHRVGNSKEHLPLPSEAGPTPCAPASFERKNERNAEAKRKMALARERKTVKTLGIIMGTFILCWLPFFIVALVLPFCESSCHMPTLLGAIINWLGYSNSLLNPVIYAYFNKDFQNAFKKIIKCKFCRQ
Procedure: as §1

Cannabinoid receptor 1 = Cannabinoid receptor 1 (Homo sapiens, UniProt P21554); test: Receptor-based pharmacological activity, agonist; details: for EC50: read-out: RC50 (EC50); for Pharmacological activity at cannabinoid receptor 1: at approximately 1 to 20 μM
Procedure: as §1

5-HT1B receptor = 5-HT1B receptor (Homo sapiens, UniProt P28222); test: Receptor-based pharmacological activity, agonist; details: for EC50: read-out: RC50 (EC50)
Procedure: as §1

[1] = target: T2, Cholinergic receptor muscarinic 2 (Homo sapiens, UniProt P08172); test: Receptor-based pharmacological activity, agonist; details: positive control Acetylcholine chloride; for EC50: read-out: RC50 (EC50)
T2 sequence (P08172 1-466): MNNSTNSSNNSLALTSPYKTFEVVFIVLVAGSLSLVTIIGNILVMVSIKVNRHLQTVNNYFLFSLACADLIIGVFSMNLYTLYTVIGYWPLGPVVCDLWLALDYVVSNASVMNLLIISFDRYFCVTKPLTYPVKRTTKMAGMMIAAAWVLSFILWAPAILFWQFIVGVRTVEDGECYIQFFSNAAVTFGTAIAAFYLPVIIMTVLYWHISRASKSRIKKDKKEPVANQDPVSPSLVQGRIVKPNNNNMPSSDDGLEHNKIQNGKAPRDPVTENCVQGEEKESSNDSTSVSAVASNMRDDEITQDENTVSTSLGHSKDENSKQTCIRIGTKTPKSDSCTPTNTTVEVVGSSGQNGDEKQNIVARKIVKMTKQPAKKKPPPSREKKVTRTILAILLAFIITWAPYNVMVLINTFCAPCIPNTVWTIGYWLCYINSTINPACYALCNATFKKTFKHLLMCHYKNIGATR
Procedure: as §1

Cannabinoid receptor 2 = Cannabinoid receptor 2 (Homo sapiens, UniProt P34972); test: Receptor-based pharmacological activity, agonist; details: for EC50: read-out: RC50 (EC50); for Pharmacological activity at cannabinoid receptor 2: at approximately 1 to 20 μM
Procedure: as §1

α-2A adrenergic receptor = target: T3, α-2A adrenergic receptor (Homo sapiens, UniProt P08913); test: Receptor-based pharmacological activity, agonist; details: for EC50: read-out: RC50 (EC50)
T3 sequence (P08913 1-465): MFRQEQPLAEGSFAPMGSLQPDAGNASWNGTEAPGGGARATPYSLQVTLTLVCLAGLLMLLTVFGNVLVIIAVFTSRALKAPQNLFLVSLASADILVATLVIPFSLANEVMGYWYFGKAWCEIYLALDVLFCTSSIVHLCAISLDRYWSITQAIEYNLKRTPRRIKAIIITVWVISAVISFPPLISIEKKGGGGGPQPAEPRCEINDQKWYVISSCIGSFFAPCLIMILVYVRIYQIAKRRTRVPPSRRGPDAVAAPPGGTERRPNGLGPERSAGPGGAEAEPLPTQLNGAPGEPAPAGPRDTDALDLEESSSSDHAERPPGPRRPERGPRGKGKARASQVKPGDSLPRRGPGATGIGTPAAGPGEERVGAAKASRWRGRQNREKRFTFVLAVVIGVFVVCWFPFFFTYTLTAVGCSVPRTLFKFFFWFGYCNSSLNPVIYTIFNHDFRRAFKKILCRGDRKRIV
Procedure: as §1

Histamine H2 receptor = Histamine H2 receptor (Homo sapiens, UniProt P25021); test: Receptor-based pharmacological activity, antagonist; details: for IC50: read-out: RC50 (IC50)
Procedure: as §1

Histamine H1 receptor = Histamine H1 receptor (Homo sapiens, UniProt P35367); test: as above; details: for IC50: read-out: RC50 (IC50)
Procedure: as §1

Dopamine receptor D1 = Dopamine receptor D1 (Homo sapiens, UniProt P21728); test: as above; details: for IC50: read-out: RC50 (IC50)
Procedure: as §1

[2] = Blocker, positive control Clomipramine
[3] = read-out: Max Response (%) Compared to Positive Control
[4] = Agonist, positive control Serotonin hydrochloride, 1 to 20 μM, read-out: Max Response (%) Compared to Positive Control
[5] = Agonist, positive control Serotonin hydrochloride
[6] = Agonist, positive control CP 55940
[7] = Agonist, positive control UK 14304
[8] = Antagonist, positive control Tiotidine
[9] = Antagonist, positive control Mepyramine
[10] = Antagonist, positive control SCH 39166
[11] = Agonist, positive control Serotonin hydrochloride, 1 to 20 μM
[12] = Agonist, positive control CP 55940, 1 to 20 μM
[13] = listed as pentadecenoyl carnitine

Sequence of Histamine H2 receptor (P25021 whole entry): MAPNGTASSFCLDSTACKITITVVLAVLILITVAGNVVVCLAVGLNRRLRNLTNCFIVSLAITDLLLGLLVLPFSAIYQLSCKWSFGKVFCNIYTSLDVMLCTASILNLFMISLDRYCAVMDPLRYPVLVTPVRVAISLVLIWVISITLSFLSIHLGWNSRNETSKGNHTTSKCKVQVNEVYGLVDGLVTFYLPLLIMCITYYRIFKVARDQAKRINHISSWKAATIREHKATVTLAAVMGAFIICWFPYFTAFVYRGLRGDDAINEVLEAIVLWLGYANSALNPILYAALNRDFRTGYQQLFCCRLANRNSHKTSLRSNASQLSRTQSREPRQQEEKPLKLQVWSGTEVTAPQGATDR
Sequence of 5-HT1B receptor (P28222 whole entry): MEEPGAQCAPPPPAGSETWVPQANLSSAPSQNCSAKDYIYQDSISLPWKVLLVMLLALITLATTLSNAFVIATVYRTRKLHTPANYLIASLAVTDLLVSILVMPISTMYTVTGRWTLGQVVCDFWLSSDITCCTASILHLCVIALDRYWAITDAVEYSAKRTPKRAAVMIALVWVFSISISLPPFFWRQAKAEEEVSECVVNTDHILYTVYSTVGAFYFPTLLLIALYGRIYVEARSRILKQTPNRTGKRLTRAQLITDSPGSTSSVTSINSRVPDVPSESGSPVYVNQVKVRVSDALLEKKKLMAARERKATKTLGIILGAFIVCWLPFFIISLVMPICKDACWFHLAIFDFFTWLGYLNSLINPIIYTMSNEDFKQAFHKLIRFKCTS
Sequence of Dopamine receptor D1 (P21728 whole entry, species assumed): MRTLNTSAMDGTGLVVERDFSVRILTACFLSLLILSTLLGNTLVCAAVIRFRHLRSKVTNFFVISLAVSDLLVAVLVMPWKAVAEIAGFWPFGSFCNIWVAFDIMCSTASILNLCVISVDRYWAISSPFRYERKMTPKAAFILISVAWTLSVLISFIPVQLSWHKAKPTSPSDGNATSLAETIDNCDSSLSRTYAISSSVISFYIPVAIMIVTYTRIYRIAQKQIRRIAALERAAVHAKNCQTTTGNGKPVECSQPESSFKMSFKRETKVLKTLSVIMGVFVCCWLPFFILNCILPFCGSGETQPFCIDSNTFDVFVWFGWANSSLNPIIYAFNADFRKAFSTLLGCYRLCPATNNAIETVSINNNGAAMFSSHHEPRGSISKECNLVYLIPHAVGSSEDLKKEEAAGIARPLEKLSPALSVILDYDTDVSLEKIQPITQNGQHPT
Sequence of Histamine H1 receptor (P35367 whole entry): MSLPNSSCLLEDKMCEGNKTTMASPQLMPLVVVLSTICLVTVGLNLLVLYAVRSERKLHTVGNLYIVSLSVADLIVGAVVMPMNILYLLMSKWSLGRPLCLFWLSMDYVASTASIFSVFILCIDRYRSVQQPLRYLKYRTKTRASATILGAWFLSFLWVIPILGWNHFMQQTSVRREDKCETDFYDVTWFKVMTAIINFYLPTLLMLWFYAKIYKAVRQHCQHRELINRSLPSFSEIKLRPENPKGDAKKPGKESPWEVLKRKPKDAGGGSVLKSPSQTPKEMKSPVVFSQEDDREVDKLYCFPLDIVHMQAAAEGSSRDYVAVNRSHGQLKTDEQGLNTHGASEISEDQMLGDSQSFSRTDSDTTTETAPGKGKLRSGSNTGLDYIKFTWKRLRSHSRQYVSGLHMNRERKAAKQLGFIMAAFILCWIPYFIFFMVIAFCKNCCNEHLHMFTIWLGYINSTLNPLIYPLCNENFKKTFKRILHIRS
Sequence of Cannabinoid receptor 2 (P34972 whole entry): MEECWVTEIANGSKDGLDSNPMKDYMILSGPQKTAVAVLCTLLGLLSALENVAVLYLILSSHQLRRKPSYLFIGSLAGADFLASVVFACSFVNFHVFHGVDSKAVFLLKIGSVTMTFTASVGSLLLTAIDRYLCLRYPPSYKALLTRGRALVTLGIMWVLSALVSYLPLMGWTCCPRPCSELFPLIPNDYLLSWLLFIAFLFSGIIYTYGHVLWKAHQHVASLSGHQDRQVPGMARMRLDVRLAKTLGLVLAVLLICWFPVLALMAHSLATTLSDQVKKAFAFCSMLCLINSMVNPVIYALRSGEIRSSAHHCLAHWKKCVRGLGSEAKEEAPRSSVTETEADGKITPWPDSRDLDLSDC
Sequence of Cannabinoid receptor 1 (P21554 whole entry, species assumed): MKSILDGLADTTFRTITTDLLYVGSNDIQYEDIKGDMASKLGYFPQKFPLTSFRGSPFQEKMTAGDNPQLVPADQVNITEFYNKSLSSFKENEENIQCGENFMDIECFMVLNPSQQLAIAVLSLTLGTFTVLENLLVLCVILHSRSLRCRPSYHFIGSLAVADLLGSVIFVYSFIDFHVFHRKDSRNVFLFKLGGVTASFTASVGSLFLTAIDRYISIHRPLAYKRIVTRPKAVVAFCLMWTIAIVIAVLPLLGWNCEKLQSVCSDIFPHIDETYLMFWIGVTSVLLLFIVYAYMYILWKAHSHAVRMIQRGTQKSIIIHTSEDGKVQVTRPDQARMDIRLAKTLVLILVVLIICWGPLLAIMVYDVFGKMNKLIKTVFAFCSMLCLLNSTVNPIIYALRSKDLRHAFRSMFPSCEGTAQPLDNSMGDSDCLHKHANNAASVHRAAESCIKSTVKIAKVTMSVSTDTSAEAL
Sequence of Serotonin Transporter (P31645 whole entry): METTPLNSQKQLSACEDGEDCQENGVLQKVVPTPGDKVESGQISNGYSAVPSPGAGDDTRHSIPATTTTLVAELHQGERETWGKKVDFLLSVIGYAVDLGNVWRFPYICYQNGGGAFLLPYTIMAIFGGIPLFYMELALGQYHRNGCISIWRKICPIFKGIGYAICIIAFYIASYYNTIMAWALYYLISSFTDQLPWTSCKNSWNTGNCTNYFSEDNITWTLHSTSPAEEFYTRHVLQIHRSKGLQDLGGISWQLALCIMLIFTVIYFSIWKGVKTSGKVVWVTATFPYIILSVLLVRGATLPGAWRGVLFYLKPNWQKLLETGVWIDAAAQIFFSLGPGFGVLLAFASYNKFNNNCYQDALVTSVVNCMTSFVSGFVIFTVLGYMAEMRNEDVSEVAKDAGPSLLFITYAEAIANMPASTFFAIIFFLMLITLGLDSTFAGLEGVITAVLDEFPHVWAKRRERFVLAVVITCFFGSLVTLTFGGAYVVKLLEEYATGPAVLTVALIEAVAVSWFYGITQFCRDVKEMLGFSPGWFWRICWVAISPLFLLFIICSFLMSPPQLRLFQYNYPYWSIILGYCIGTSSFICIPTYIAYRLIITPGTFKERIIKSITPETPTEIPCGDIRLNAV

With `CCCCCCCCCCCCCCC(=O)O` [Pentadecanoic acid (C15:0), Pentadecanoic acid] the IC50 (Serotonin Transporter; [2]) was > 20 µM, the Emax (Serotonin Transporter; [3]) was 1% and the Emax (5-HT1A receptor; [4]) was 0%. The EC50 (5-HT1A receptor; [5]) was > 20 µM, the EC50 (Cannabinoid receptor 1; [6]) was > 20 µM and the Emax (Cannabinoid receptor 1; [3]) was 25%. For the same compound, the Emax (5-HT1B receptor; [4]) was 0%, the EC50 (5-HT1B receptor; [5]) was > 20 µM and the Emax ([1]; 1 to 20 μM, read-out: Max Response (%) Compared to Positive Control) was 2%. The EC50 [1] was > 20 µM, the Emax (Cannabinoid receptor 2; Agonist, positive control CP 55940, 1 to 20 μM, read-out: Max Response (%) Compared to Positive Control) was 22% and the EC50 (Cannabinoid receptor 2; [6]) was > 20 µM. The Emax (α-2A adrenergic receptor; Agonist, positive control UK 14304, 1 to 20 μM, read-out: Max Response (%) Compared to Positive Control) was 22%, the EC50 (α-2A adrenergic receptor; [7]) was > 20 µM and the Emax (Histamine H2 receptor; Antagonist, positive control Tiotidine, 1 to 20 μM, read-out: Max Response (%) Compared to Positive Control) was 2%. The IC50 (Histamine H2 receptor; [8]) was > 20 µM, the Emax (Histamine H1 receptor; Antagonist, positive control Mepyramine, 1 to 20 μM, read-out: Max Response (%) Compared to Positive Control) was 5% and the IC50 (Histamine H1 receptor; [9]) was > 20 µM. For the same compound, the Emax (Dopamine receptor D1; Antagonist, positive control SCH 39166, 1 to 20 μM, read-out: Max Response (%) Compared to Positive Control) was 4% and the IC50 (Dopamine receptor D1; [10]) was > 20 µM.
In the case of `CCCCCCCCCCCCCCC(=O)O[C@H](CC(=O)[O-])C[N+](C)(C)C` [Pentadecanoylcarnitine, pentadecanoylcarnitine], the “Max Response (%) Compared to Positive Control” value (Serotonin Transporter; Blocker, positive control Clomipramine, 1 to 20 μM) is reported as 83%, the IC50 (Serotonin Transporter; [2]) is reported as 7.4 µM and the “Pharmacological activity at SERT” value (Serotonin Transporter; at approximately 1 to 20 μM) is reported as “blocker”. The “Max Response (%) Compared to Positive Control” value (5-HT1A receptor; [11]) was 78%, the EC50 (5-HT1A receptor; [5]) was 9.6 µM and the “Pharmacological activity at 5-HT1A receptor” value (5-HT1A receptor; at approximately 1 to 20 μM) was “agonist”. For the same compound, the “Max Response (%) Compared to Positive Control” value (Cannabinoid receptor 1; [12]) was 111%, the EC50 (Cannabinoid receptor 1; [6]) was 3.7 µM and the “Pharmacological activity at cannabinoid receptor 1” value (Cannabinoid receptor 1) was “agonist”. For the same compound, the “Pharmacological activity at cannabinoid receptor 1” value (Cannabinoid receptor 1; [13]) was “fully activates”, the “Max Response (%) Compared to Positive Control” value (5-HT1B receptor; [11]) was 74% and the EC50 (5-HT1B receptor; [5]) was 9.3 µM. For the same compound, the “Pharmacological activity at 5-HT1B receptor” value (5-HT1B receptor; at approximately 1 to 20 μM) was “agonist”, the “Max Response (%) Compared to Positive Control” value ([1]; 1 to 20 μM) was 206% and the EC50 [1] was 3.9 µM. For the same compound, the “Max Response (%) Compared to Positive Control” value (Cannabinoid receptor 2; [12]) was 106%, the EC50 (Cannabinoid receptor 2; [6]) was 3.2 µM and the “Pharmacological activity at cannabinoid receptor 2” value (Cannabinoid receptor 2) was “agonist”. For the same compound, the “Pharmacological activity at cannabinoid receptor 2” value (Cannabinoid receptor 2; [13]) was “fully activates”, the “Max Response (%) Compared to Positive Control” value (α-2A adrenergic receptor; Agonist, positive control UK 14304, 1 to 20 μM) was 105% and the EC50 (α-2A adrenergic receptor; [7]) was 5.9 µM. The “Pharmacological activity at α-2A adrenergic receptor” value (α-2A adrenergic receptor; at approximately 1 to 20 μM) was “agonist”, the “Max Response (%) Compared to Positive Control” value (Histamine H2 receptor; Antagonist, positive control Tiotidine, 1 to 20 μM) was 98% and the IC50 (Histamine H2 receptor; [8]) was 6.1 µM. For the same compound, the “Pharmacological activity at histamine H2 receptor” value (Histamine H2 receptor; at approximately 1 to 20 μM) was “antagonist”, the “Max Response (%) Compared to Positive Control” value (Histamine H1 receptor; Antagonist, positive control Mepyramine, 1 to 20 μM) was 71% and the IC50 (Histamine H1 receptor; [9]) was 10.9 µM. For the same compound, the “Pharmacological activity at histamine H1 receptor” value (Histamine H1 receptor; at approximately 1 to 20 μM) was “antagonist”, the “Max Response (%) Compared to Positive Control” value (Dopamine receptor D1; Antagonist, positive control SCH 39166, 1 to 20 μM) was 105% and the IC50 (Dopamine receptor D1; [10]) was 6.2 µM. The “Pharmacological activity at dopamine receptor D1” value (Dopamine receptor D1; at approximately 1 to 20 μM) was “antagonist”.
